# From US10934285B2, “Compounds and compositions for inhibiting the activity of SHP2” (Novartis AG, priority 2016, dated 2021)
# Molecular target: SHP2 (Homo sapiens (Human), UniProt Q06124)
# Assay: SHP2 Allosteric Inhibition Assay
# Assay type: biochemical
# Settings: 0.5 nM SHP2 activated with 0.5 μM peptide IRS1_pY1172(dPEG8)pY1222; surrogate substrate DiFMUP; prompt fluorescence
# From the text: SHP2 Allosteric Inhibition Assay
# SHP2 is allosterically activated through binding of bis-tyrosyl-phorphorylated peptides to its Src Homology 2 (SH2) domains. The latter activation step leads to the release of the auto-inhibitory interface of SHP2, which in turn renders the SHP2 protein tyrosine phosphatase (PTP) active and available for substrate recognition and reaction catalysis. The catalytic activity of SHP2 was monitored using the surrogate substrate DiFMUP in a prompt fluorescence assay format.
# After 30-60 minutes incubation at 25° C., the surrogate substrate DiFMUP (Invitrogen, cat #D6567) was added to the reaction and incubated at 25° C. for 30 minutes. […] The inhibitor dose response curves were analyzed using normalized IC50 regression curve fitting with control based normalization.
# Chain of SHP2 (Q06124 whole entry): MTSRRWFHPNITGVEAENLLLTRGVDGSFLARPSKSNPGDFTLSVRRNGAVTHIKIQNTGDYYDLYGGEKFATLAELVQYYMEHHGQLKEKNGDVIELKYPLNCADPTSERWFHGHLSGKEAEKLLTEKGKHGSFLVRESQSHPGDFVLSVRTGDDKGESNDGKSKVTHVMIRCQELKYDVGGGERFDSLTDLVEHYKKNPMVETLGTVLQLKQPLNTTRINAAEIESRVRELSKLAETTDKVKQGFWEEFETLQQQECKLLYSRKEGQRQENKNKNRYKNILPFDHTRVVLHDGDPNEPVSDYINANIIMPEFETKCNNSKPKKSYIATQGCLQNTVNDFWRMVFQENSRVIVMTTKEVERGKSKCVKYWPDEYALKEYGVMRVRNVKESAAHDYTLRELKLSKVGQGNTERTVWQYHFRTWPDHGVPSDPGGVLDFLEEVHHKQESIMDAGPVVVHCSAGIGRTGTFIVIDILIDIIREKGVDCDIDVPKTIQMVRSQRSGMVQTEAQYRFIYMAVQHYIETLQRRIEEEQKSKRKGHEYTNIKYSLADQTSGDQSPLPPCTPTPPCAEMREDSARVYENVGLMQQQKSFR
row,SMILES,IC50
1,"CC1(N)CCN(c2nnc(Sc3cccc(NC(=O)C4=C(O)CN(c5ccccc5)C4=O)c3Cl)c(N)n2)CC1 [Example 52, N-(3-((5-amino-3-(4-amino-4-methylpiperidin-1-yl)-1,2,4-triazin-6-yl)thio)-2-chlorophenyl)-4-hydroxy-2-oxo-1-phenyl-2,5-dihydro-1H-pyrrole-3-carboxamide]",3 nM
2,"CC1(N)CCN(c2cnc(Sc3cccc(NC(=O)C4=C(O)CN(c5ccccc5)C4=O)c3Cl)c(N)n2)CC1 [Example 53, N-(3-((3-amino-5-(4-amino-4-methylpiperidin-1-yl)pyrazin-2-yl)thio)-2-chlorophenyl)-4-hydroxy-2-oxo-1-phenyl-2,5-dihydro-1H-pyrrole-3-carboxamide]",4.4 nM
3,"CN1C(=O)C(C(=O)Nc2cccc(Sc3ncc(N4CCC(C)(N)CC4)nc3N)c2Cl)=C(O)C1Cc1ccccc1 (stereo not shown) [Example 54, N-(3-((3-amino-5-(4-amino-4-methylpiperidin-1-yl)pyrazin-2-yl)thio)-2-chlorophenyl)-5-benzyl-4-hydroxy-1-methyl-2-oxo-2,5-dihydro-1H-pyrrole-3-carboxamide]",7.3 nM
4,"CCC1C(O)=C(C(=O)Nc2cccc(Sc3ncc(N4CCC(C)(N)CC4)nc3N)c2Cl)C(=O)N1C (stereo not shown) [Example 55, N-(3-((3-amino-5-(4-amino-4-methylpiperidin-1-yl)pyrazin-2-yl)thio)-2-chlorophenyl)-5-ethyl-4-hydroxy-1-methyl-2-oxo-2,5-dihydro-1H-pyrrole-3-carboxamide]",2.8 nM
5,"CNC1(C)CCN(c2cnc(Sc3cccc(NC(=O)C4=C(O)CN(c5ccccc5)C4=O)c3Cl)c(N)n2)CC1 [Example 56, N-(3-((3-amino-5-(4-methyl-4-(methylamino)piperidin-1-yl)pyrazin-2-yl)thio)-2-chlorophenyl)-4-hydroxy-2-oxo-1-phenyl-2,5-dihydro-1H-pyrrole-3-carboxamide]",6.6 nM
6,"C[C@@H]1CN(c2cnc(Sc3cccc(NC(=O)C4=C(O)CN(c5ccccc5)C4=O)c3Cl)c(N)n2)C[C@H](C)N1 [Example 57, N-(3-((3-amino-5-(cis-3,5-dimethylpiperazin-1-yl)pyrazin-2-yl)thio)-2-chlorophenyl)-4-hydroxy-2-oxo-1-phenyl-2,5-dihydro-1H-pyrrole-3-carboxamide]",11 nM
7,"CC1(N)CCN(c2cnc(Sc3cccc(NC(=O)c4c(O)c5ccccc5[nH]c4=O)c3Cl)c(N)n2)CC1 [Example 58, N-(3-((3-Amino-5-(4-amino-4-methylpiperidin-1-yl)pyrazin-2-yl)thio)-2-chlorophenyl)-4-hydroxy-2-oxo-1,2-dihydroquinoline-3-carboxamide]",72 nM
8,"CN1C(=O)C(C(=O)Nc2cccc(Sc3ncc(N4CCC(C)(N)CC4)nc3N)c2Cl)=C(O)C1(C)C [Example 59, N-(3-((3-amino-5-(4-amino-4-methylpiperidin-1-yl)pyrazin-2-yl)thio)-2-chlorophenyl)-4-hydroxy-1,5,5-trimethyl-2-oxo-2,5-dihydro-1H-pyrrole-3-carboxamide]",< 3 nM
9,"O=C(Nc1cccc(Sc2ccc3nc(N4CCCCC4)[nH]c3n2)c1Cl)C1=C(O)[C@H](Cc2ccccc2)NC1=O [Example 60, (S)-5-benzyl-N-(2-chloro-3-((2-(piperidin-1-yl)-3H-imidazo[4,5-b]pyridin-5-yl)thio)phenyl)-4-hydroxy-2-oxo-2,5-dihydro-1H-pyrrole-3-carboxamide]",11 nM
10,"CN1C(=O)C(C(=O)Nc2cccc(Sc3ccc4nc(N5CCCCC5)[nH]c4n3)c2Cl)=C(O)C1Cc1ccccc1 (stereo not shown) [Example 61, 5-benzyl-N-(2-chloro-3-((2-(piperidin-1-yl)-3H-imidazo[4,5-b]pyridin-5-yl)thio)phenyl)-4-hydroxy-1-methyl-2-oxo-2,5-dihydro-1H-pyrrole-3-carboxamide]",22 nM
11,"CCC1C(O)=C(C(=O)Nc2cccc(Sc3ccc4nc(N5CCCCC5)[nH]c4n3)c2Cl)C(=O)N1C (stereo not shown) [Example 62, N-(2-chloro-3-((2-(piperidin-1-yl)-3H-imidazo[4,5-b]pyridin-5-yl)thio)phenyl)-5-ethyl-4-hydroxy-1-methyl-2-oxo-2,5-dihydro-1H-pyrrole-3-carboxamide]",25 nM
12,"CCC1C(O)=C(C(=O)Nc2cccc(Sc3ccc4nc(N5CCCCC5)[nH]c4n3)c2Cl)C(=O)N1c1ccccc1 (stereo not shown) [Example 63, N-(2-chloro-3-((2-(piperidin-1-yl)-3H-imidazo[4,5-b]pyridin-5-yl)thio)phenyl)-5-ethyl-4-hydroxy-2-oxo-1-phenyl-2,5-dihydro-1H-pyrrole-3-carboxamide]",52 nM
13,"O=C(Nc1cccc(Sc2ccc3nc(N4CCCCC4)[nH]c3n2)c1Cl)C1=C(O)[C@H](c2ccccc2)NC1=O [Example 64, (S)-N-(2-chloro-3-((2-(piperidin-1-yl)-3H-imidazo[4,5-b]pyridin-5-yl)thio)phenyl)-4-hydroxy-2-oxo-5-phenyl-2,5-dihydro-1H-pyrrole-3-carboxamide]",90 nM
14,"CN1C(=O)C(C(=O)Nc2cccc(Sc3ccc4nc(N5CCCCC5)[nH]c4n3)c2Cl)=C(O)C1(C)C [Example 65, N-(2-chloro-3-((2-(piperidin-1-yl)-3H-imidazo[4,5-b]pyridin-5-yl)thio)phenyl)-4-hydroxy-1,5,5-trimethyl-2-oxo-2,5-dihydro-1H-pyrrole-3-carboxamide]",42 nM
15,"CC1(N)CCN(c2cnc(Sc3cccc(NC(=O)C4=C(O)CN(c5ccccc5)C4=O)c3)c(N)n2)CC1 [Example 66, N-(3-((3-Amino-5-(4-amino-4-methylpiperidin-1-yl)pyrazin-2-yl)thio)phenyl)-4-hydroxy-2-oxo-1-phenyl-2,5-dihydro-1H-pyrrole-3-carboxamide]",17 nM
16,"CC1(N)CCN(c2cnc(Sc3cccc(NC(=O)C4=C(O)CN(c5ccccc5)C4=O)c3C(F)(F)F)c(N)n2)CC1 [Example 67, N-(3-((3-Amino-5-(4-amino-4-methylpiperidin-1-yl)pyrazin-2-yl)thio)-2-(trifluoromethyl)phenyl)-4-hydroxy-2-oxo-1-phenyl-2,5-dihydro-1H-pyrrole-3-carboxamide]",4 nM
